Assay results reported in PMC10304470, “Characterization of the Antimicrobial Activities of Trichoplusia ni Cecropin A as a High-Potency Therapeutic against Colistin-Resistant Escherichia coli” (Pharmaceutics, 2023).
Peptide text beside a SMILES is read from it.

Assays:
[1] = test system: colistin-resistant A. baumannii NMS 1915 (ColRAB 1915); conditions: MH broth, 2 × 10^5 cells/mL, 16 h, 37 °C, OD600, >95% killing
Source text: (§1) E. coli (KCTC 1682) was obtained from the Korean Collection for Type Cultures (KCTC, Jeongeup, Republic of Korea), and Acinetobacter baumannii (KCCM 40203) and Pseudomonas aeruginosa (KCCM 11328) from the Korea Culture Center of Microorganisms (KCCM, Seoul, Republic of Korea). Klebsiella pneumoniae (NCCP 16054), colistin-resistant E. coli NMA 1557 (ColREC 1557), NMS 12 (ColREC 12), and colistin-resistant A. baumannii NMS 1915 (ColRAB 1915), as well as colistin-resistant K. pneumoniae NMS 139 (ColRKP 139), were obtained from the National Institute of Health Multidrug Resistant Bacteria Specialized Pathogen Resources Bank (Osong, Republic of Korea).
(§2) The peptides dissolved at 10 mg/mL in deionized water were serially diluted from 64 μM to 0.5 μM in 96-well plates using Mueller–Hinton (MH) broth, and bacteria cultured to exponential growth were added at 2 × 10^5 cells/mL. The group of bacteria that grew untreated in the broth was set as the positive control, and the uninoculated broth as the negative control. Dissolved peptides are colorless and equal to the OD value of the medium only. After 16 h incubation at 37 °C, the absorbance at 600 nm was measured using a SpectraMAX microplate reader (Molecular Devices, San Jose, CA, USA).

all bacterial strains = assay: Average MIC over all strains and relative selective index; format: cell-based; conditions: 8 strains; MIC above 64 μM taken as 128 μM
Procedure: as §2, with “The antibacterial abilities of the peptides (T. ni cecropin, cecropin A, polymyxin B, colistin, and melittin) were determined using the broth dilution method as previously reported. The peptides” for “The peptides”

[2] = test system: LPS-stimulated RAW 264.7 cells; assay: IL-6 secretion in LPS-stimulated macrophages, ELISA; format: cell-based, mouse; conditions: 5 μM peptide, 1 h pretreatment, 20 ng/mL LPS, 16 h
Procedure: (§3) Murine macrophage RAW 264.7 cells were used to measure the anti-inflammatory activities of peptides. Culture plates (96-well) were seeded at a density of 1 × 10^5 cells/well and stimulated with 20 ng/mL LPS (O111:B4; Sigma-Aldrich) for 16 h after 1 h pretreatment with each concentration of peptide (0.6 to 10 μM). The control is an untreated cell. The culture supernatant was added to an equal volume of Griess reagent (Sigma-Aldrich), and the absorbance was measured at 540 nm. Nitrite production was quantified using a standard curve constructed using NaNO2.
Interleukin-6 (IL-6)-specific enzyme-linked immunosorbent assays (ELISA; R&D Systems, Minneapolis, MN, USA) were performed according to the method specified by the manufacturer. Briefly, cell culture supernatants were added to immune plates treated with the capture antibody, followed by the detection antibody and streptavidin-horseradish peroxidase. For each step, the plates were washed twice with PBS containing 0.05% Tween 20. The plates were incubated with tetramethylbenzidine substrate (Invitrogen, Carlsbad, CA, USA), and the reaction was stopped with 2 N H2SO4 to measure absorbance at 450 nm. A standard graph of each marker was plotted and quantified.

[3] = test system: colistin-resistant K. pneumoniae NMS 139 (ColRKP 139); format: cell-based, Klebsiella pneumoniae; conditions: MH broth, 2 × 10^5 cells/mL, 16 h, 37 °C, OD600, >95% killing
Source text: as §1
as §2, with “The antibacterial abilities of the peptides (T. ni cecropin, cecropin A, polymyxin B, colistin, and melittin) were determined using the broth dilution method as previously reported. The peptides” for “The peptides”

ColREC 12 = assay: Biofilm inhibition assay, crystal violet; format: cell-based, Escherichia coli; conditions: ColREC 12, 2 μM peptide, 16 h
Procedure: To quantify the biofilm inhibitory activity of each peptide, ColREC 1557 and ColREC 12 were cultured in Luria–Bertani (LB) broth overnight and then sub-cultured in MH broth. Different concentrations of peptide (from 1 μM to 64 μM) were prepared in 96-well plates using MH broth (containing 0.2% glucose) and incubated with bacteria (2 × 10^5 cells/mL) at 37 °C for 16 h. After incubation, the culture medium was removed and methanol was added as a fixative for 15 min. The completely dried plates were stained for 2 h by adding 100 μL of staining solution (0.1% (w/v) crystal violet in 0.25% (v/v) acetic acid). The residual staining solution was gently rinsed off three times using distilled water. Subsequently, 90% ethanol was used to dissolve the dye, and absorbance was measured at 600 nm. The untreated bacterial group was used as a control to compare biofilm production rates.

[4] = test system: sheep red blood cells (sRBCs); assay: Hemolysis; format: cell-based; conditions: 100 μM peptide, 1 h, 37 °C
Procedure: Sheep red blood cells (sRBCs; KisanBio, Seoul, Republic of Korea) were added to three volumes of phosphate-buffered saline (PBS; 35 mM phosphate buffer containing 150 mM NaCl, pH 7.4) and centrifuged five times at 4 °C, 1000× g for 5 min, followed by a final suspension in PBS at 4% (w/v). Peptides serially diluted from 100 μM to 3.1 μM in PBS at 100 μL in a 96-well plate were prepared, and an equal volume of blood solution was added. After incubation at 37 °C for 1 h, the plates were centrifuged for 5 min at 4 °C, 1000× g. The absorbance of the supernatant was measured at 405 nm. The 100% hemolysis control was 0.1% Triton-X 100 added to the blood solution; the negative control was blood solution added to PBS.

[5] = test system: LPS-stimulated RAW 264.7 cells; assay: Nitrite (NO) production in LPS-stimulated macrophages, Griess; format: cell-based, mouse; conditions: 5 μM peptide, 1 h pretreatment, 20 ng/mL LPS, 16 h
Procedure: as §3

[6] = test system: ColREC 1557-stimulated RAW 264.7 cells; assay: Nitrite (NO) production in ColREC 1557-infected macrophages; format: cell-based, mouse; conditions: 1.3 μM peptide, 1 h before ColREC 1557 infection
Procedure: To investigate the inflammatory response induced by ColREC 1557, RAW 264.7 cells (1 × 10^5 cells/well) were treated with various concentrations of peptide (0.6 to 10 μM) 1 h before bacterial infection. The control was an untreated cell. ColREC 1557 that had been cultured in LB broth overnight and sub-cultured to the exponential phase were harvested, suspended in DMEM, and used to infect RAW 264.7 cells to a final concentration of 1 × 10^5 cells/well. Subsequent nitrite and IL-6 detection was performed as described in Section 2.15.

For `CC[C@H](C)CCCCC(=O)N[C@@H](CCN)C(=O)N[C@H](C(=O)N[C@@H](CCN)C(=O)N[C@H]1CCNC(=O)[C@H]([C@@H](C)O)NC(=O)[C@H](CCN)NC(=O)[C@H](CCN)NC(=O)[C@H](CC(C)C)NC(=O)[C@@H](CC(C)C)NC(=O)[C@H](CCN)NC1=O)[C@@H](C)O` [colistin] (HELM PEPTIDE1{[CC[C@H](C)CCCCC(=O)[*:2]].[Dab].T.[Dab].[Dab].[Dab].[dL].L.[Dab].[Dab].T}$PEPTIDE1,PEPTIDE1,5:R3-11:R2$$$V2.0; N-terminus assumed; bridges inferred), the “Minimal Inhibitory Concentration” value [1] was >64 µM, the “GM (geometric mean, average MIC value of all bacterial strains)” value (all bacterial strains) was 33.72 µM and the “inhibition of IL-6 secretion” value [2] was “over 90%”. The “Minimal Inhibitory Concentration” value [3] was >64 µM, the “inhibition of biofilm formation” value (ColREC 12) was 28.9% and the hemolytic activity [4] was “no hemolytic activity”. For the same compound, the “inhibition of NO” value [5] was “over 90%” and the “inhibition of NO” value [6] was 24.7%.
